Data as given in US10407712B2, “Methods, compositions and kits for high throughput kinase activity screening using mass spectrometry and stable isotopes” (President and Fellows of Harvard College, priority 2008, dated 2019).

System: HEK293 cell lysates
Assay: KAYAK in vitro kinase assay, individual reactions, lysates of starved, insulin- or EGF-stimulated HEK293 cells
Assay type: biochemical, human
Description: For stimulation of HEK293 cells or HeLa lines, cells were treated with insulin (100 nM; 10-30 min) EGF (50 ng/ml; 10 min) or phorbol 12-myristate 13-acetate (PMA; 50 or 100 ng/ml; 10 -30 min) at 37° C. for the indicated times after overnight serum-starvation.
For cell lysis, the media were removed, and cells were washed with ice-cold phosphate-buffered saline (PBS) and lysed with ice-cold lysis buffer (10 mM K2HPO4 pH 7.5, 1 mM EDTA, 10 mM MgCl2, 50 mM β-glycerophosphate, 5 mM EGTA, 0.5% Nonidet P-40, 0.1% Brij 35, 0.1% deoxycholic acid, 1mM sodium orthovanadate, 1mM phenylmethyl-sulfonyl fluoride, 5 μg/ml leupeptin and 5 μg/ml pepstatin A). Lysates were centrifuged at 10,000 rpm for 10 min to remove cell debris, and clear supernatant was used for immunoblotting and in vitro kinase assays. Protein concentration was determined by Bradford assay (Biorad, Hercules, Calif.).
Peptides were synthesized, purified and quantified as described in Yu et al. 2009 Proc Natl Acad Sci USA 106: 11606-11611, hereby incorporated by reference herein in its entirety. Each substrate peptide (250 pmol) was mixed to a final concentration of 5 μM in the 50 μL reaction mixture. Alternatively, reactions were performed using 6 μg cell lysate aliquotes mixed to a final volume of 20 μl. Cell lysate or other kinase source was added to the substrate mixture in 25 mM Tris-Cl, pH 7.5, containing 5 mM ATP, 7.5 mM MgCl2, 0.2 mM EGTA, 7.5 mM β-glycerophosphate, 0.1 mM Na3VO4, and 0.1 mM DTT. The reaction was incubated at 25° C. for 60 min and then terminated by the addition of 100 μl of 1% trifluoroacetic acid (TFA) containing a known amount of an internal standard (typically 20 pmol). Alternatively, the reaction was incubated at 20° C. for 45 min before termination with TFA.
Forty-five individual in vitro kinase reaction mixtures were combined and desalted by using Sep-Pak C18 cartridge (Waters, Milford, Mass.). Phosphopeptides were enriched by immobilized metal ion chromatography (IMAC) with 20 μl of beads (Phos-Select iron affinity gel; Sigma, St. Louis, Mo.) and subsequently desalted by using Empore C18 solid phase extraction disks (3M, St. Paul, Minn.) as described previously.
Quantitation of the target peptide-internal standard ratios was performed by first constructing the extracted ion chromatogram for the most abundant charge state for each peptide using a ±10 ppm window. Chromatograms were integrated using Qual/Quan browser (Xcalibur 2.0.5, Thermo Fisher, San Jose, Calif.). Since the phosphorylated peptides generated from the in vitro kinase reactions were chemically identical to the internal standards, they were assumed to have the same ionization efficiency. Therefore, the amount of each phosphorylated peptide was calculated by direct ratio to the internal standard level.
To test substrate suitability in a multiplexed assay, the phosphorylation activities were measured using […] of each substrate peptide, 6 μg lysate, and 5 mM ATP in a plate format. Reactions proceeded for 60 minutes followed by acidification and the addition of isotope-labeled reference peptides. After pooling 45 samples, phosphopeptide enrichment was followed by liquid-chromatography (LC) separation and on-line peptide detection by high-resolution mass spectrometry.
The ability of the peptides to report specific changes in kinase activation after pathway stimulation was examined herein. Lysates from HEK293 cells were collected after insulin or EGF treatment and were compared to their activities in the serum-starved state using the KAYAK approach. Western blot analysis of lysates from cells in which the PI3K and MAPK pathways were activated, as indicated by elevated phospho-Akt and phospho-ERK1/2 levels, respectively, is shown in FIG. 1D. […]

RIRTQSFSLQPFR (The sequence was designed and synthesized) [F6]
E: changed phosphorylation in EGF stimulated condition (EGF-stimulated compared to starved HEK293 cells): ++ (A change of more than +4 and −4 fold is indicated by “++” and “−−”, respectively.) | I: changed phosphorylation in insulin stimulated condition (insulin-stimulated compared to starved HEK293 cells): + (A change of more +2 fold and −2 fold is indicated by “+” and “−”, respectively.)
